{
  "source": "patent US12616753B2",
  "about": "“HSP70 inhibitors and methods of using same” (THE WISTAR INSTITUTE, priority 2020, dated 2026)",
  "system": "MRPS14, NDUFA6, EGFR, AKT, mutant p53",
  "assay": "Western blot of HSP70 client proteins in human tumor cell lines",
  "format": "cell-based",
  "procedure": "Proteins were identified using False Discovery Rate (FDR) values less than 10% and p values less than 0.05. FIG. 3C: Three different melanoma cell lines (WM983B, WM4265, and 1205Lu) were treated with the indicated concentrations of AP-4-139B for 24 hours. Cell lysates were subjected to Western blot analysis, and immunoblotted for NDUFA6, MRPS14, and GAPDH (loading control). FIGS. 3D-3E: HT-29 (FIG. 3D) and LS411N (FIG. 3E) CRC cell lines were treated with the indicated concentrations of PET-16 or AP-4-139B for 48 hours. Cell lysates were subjected to Western blot analysis, and immunoblotted for EGFR, MRPS14, AKT, Cleaved Lamin A (CLA), Cleaved Caspase 3 (CC3), HSP70, HSP90 and GAPDH (loading control). FIG. 3F: HT-29 cells were treated with the indicated concentration of AP-4-139B, Gamitrinib (G-TPP), or VY-3-277 (negative control) for 48 hours. Cell lysates were subjected to Western blot analysis, and immunoblotted for HSP90, AKT, p53, and MRPS14.\nCell lysates were subjected to Western blot analysis, and immunoblotted for MRPS14, NDUFA6, BAK, COXIV, and GAPDH (loading control).\nAntibodies used were purchased from: p53 (Ab-6) (DO-1, Millipore Sigma), p53 (1C12) (2524S), Cleaved Caspase 3 (9661S), Cleaved Lamin A (2035S), HSP90 (4877S), EGFR (4267S), HMGB1 (6893S), HSP70 (4873S), AKT (9272S), and GAPDH (2218S) (Cell Signaling, Danvers, MA, USA), MRPS14 (ab151118) (Abcam, Cambridge, MA, USA), NDUFA6 (GTX65550) (GeneTex, Irvine, CA, USA), BAK (H-211, sc-7873; Santa Cruz Biotechnology, Inc., Dallas, TX, USA), and HSP70 (C92F3A-5) (Enzo Life Sciences, Farmingdale, NY, USA). 17-AAG (Item No. 11039) and Metformin (Item No. 13118) were purchased from Cayman Chemical (Ann Arbor, MI, USA). Gamitrinib (G-TPP, HY-102007A) was purchased from MedChemExpress (Monmouth Junction, NJ, USA). All HSP70 inhibitors used were generated and confirmed by NMR. PLX-4720 was purchased from Chemietek (Catalog No. CT-P4720; Indianapolis, IN, USA). For in vitro studies, AP-4-139B was dissolved in DMSO. […]",
  "data": [
    {"smiles": "c1ccc(-c2cn3nc(CCCCCC[P+](c4ccccc4)(c4ccccc4)c4ccccc4)sc3n2)cc1", "note": "[AP-4-139B, Triphenyl(6-(6-phenylimidazo[2,1-b][1,3,4]thiadiazol-2-yl)hexyl)phosphonium bromide]", "values": [
      {"measurement": "level of HSP70/HSP90 client proteins EGFR, AKT, mutant p53", "setting": "HT-29 and LS411N, 48 hours", "result": "decreased"},
      {"measurement": "level of BAK and CoxIV and other mitochondrial proteins", "setting": "colorectal cancer cell lines, IC50, 24 hours", "result": "unaffected"},
      {"measurement": "level of MRPS14 and NDUFA6", "setting": "several tumor cell lines", "result": "significantly decreased level of MRPS14 and NDUFA6"}
    ]}
  ]
}
